Source: patent US20250127778A1, “CANCER IMMUNOTHERAPY COMPOSITION CONTAINING INTERACTION INHIBITOR OF STING AND TRIM29 AS ACTIVE INGREDIENT” (SPARK BIOPHARMA, INC, priority 2021, published 2025)

Legend:
STING [1] = molecular target: STING (Homo sapiens, UniProt Q86WV6); test: CETSA and ITDRF in A431 cells, STING; format: binding; parameters: endogenous in cells; host or cells: A431
Excerpt: (§1) It was verified whether the oxopiperazine derivative of the present invention was bound to STING among STING and TRIM29 to inhibit interaction thereof, based on the compound of Formula 1, by the cellular thermal shift assay (CETSA) and the isothermal dose response fingerprint (ITDRF) which were major technologies for verifying the interaction between small molecule compounds and target proteins. (D. M. Molinaetal., Science 2013, 341, 84-87.)
(§2) To verify the target of the compound of Formula 1 using the CETSA technique, the human A431 cell lines and mouse Raw264.7 cell lines were seeded on a 100-mm or 150-mm culture dish and cultured for one day. […] Afterwards, centrifugation was performed at 20000 g for 20 minutes at 4° C., the supernatant was transferred to a new container, and each concentration was measured by using the Micro BCA™ protein assay kit (ThermoFisher) according to the protocol of the manufacturer. The concentration of each sample was equally adjusted by using the RIPA lysis buffer, the 5× SDS-PAGE loading buffer (Biosesang) was added according to the ratio of the manufacturer, and the resultant was treated at 95° C. for 5 minutes and analyzed by using the Western blotting method described above.

[2] = system: STING subcytokines (IFN-β, IL-6, IL-15, IL-15Rα); test: qRT-PCR of STING subcytokine gene expression in Raw264.7 cells; format: cell-based, mouse; conditions: time-dependent and concentration-dependent, FIG. 6
Method: In order to confirm whether the oxopiperazine derivatives of Formulas 1 to 6 increase the immune activation efficacy of the STING agonist cGAMP by increasing the amount of STING, the gene expression levels of the STING subcytokine interferon-beta (IFN-β), interleukin-6 (IL-6), interleukin-15 (IL-15), and interleukin-15 receptor alpha (IL-15Rα) were confirmed through quantitative real-time PCR (qRT-PCR) experiments.
Specifically, Raw264.7 cells were seeded in a transparent 12-well plate and cultured for one day. Thereafter, the cells were treated with cGAMP and the oxopiperazine derivatives of Formulas 1 to 6, respectively, and then cultured for six hours. Finally, after the supernatant culture medium of the cells was removed, the remaining supernatant was diluted with PBS (phosphate buffer saline) and removed to prepare qRT-PCR samples. mRNA was extracted from cells by using the RNeasy mini kit of QIAGEN according to the protocol of the manufacturer. After the concentration of RNA was measured by using Nanoview equipment of GE Healthcare, 1 μg RNA was quantified, and complementary DNA (cDNA) was synthesized by using the Accupower cyclescript RT premix dT20 (Bioneer) product according to the protocol of the manufacturer. […] The mixed samples were analyzed by using the StepOne Plus Real-Time PCR system (Applied Biosciences), and the results were plotted by using the Prism 8.0 program.

TRIM29 = molecular target: T1, TRIM29 (Mus musculus, UniProt Q8R2Q0); test: ITDRF in Raw264.7 cells, TRIM29; format: binding; conditions: FIG. 14
T1 construct: endogenous in cells; host or cells: Raw264.7
T1 sequence (Q8R2Q0 1-587): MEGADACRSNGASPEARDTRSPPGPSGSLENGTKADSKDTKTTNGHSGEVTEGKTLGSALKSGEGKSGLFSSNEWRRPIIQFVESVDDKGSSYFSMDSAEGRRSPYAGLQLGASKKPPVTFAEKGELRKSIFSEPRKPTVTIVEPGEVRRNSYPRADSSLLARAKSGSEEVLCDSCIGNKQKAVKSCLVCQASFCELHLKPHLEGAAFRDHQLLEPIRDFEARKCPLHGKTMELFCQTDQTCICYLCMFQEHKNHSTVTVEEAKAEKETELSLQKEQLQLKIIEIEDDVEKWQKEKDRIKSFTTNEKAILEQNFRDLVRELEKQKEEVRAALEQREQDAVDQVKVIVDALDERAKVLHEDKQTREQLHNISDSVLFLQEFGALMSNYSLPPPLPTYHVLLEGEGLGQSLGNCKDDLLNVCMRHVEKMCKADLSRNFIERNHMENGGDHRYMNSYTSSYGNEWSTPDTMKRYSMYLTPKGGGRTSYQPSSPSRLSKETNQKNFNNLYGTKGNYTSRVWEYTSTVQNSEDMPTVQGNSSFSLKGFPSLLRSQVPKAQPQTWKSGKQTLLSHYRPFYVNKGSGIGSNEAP
Excerpt: as §1, §2

[3] = system: primary tumor and secondary tumor; test: Primary and secondary tumor model for anticancer immune system construction; format: in vivo, mouse; conditions: FIG. 30
Excerpt: It was verified whether, under the treatment of cGAMP and the compound of Formula 1 in combination, in addition to the results of increasing the antigen presentation efficacy that were confirmed in FIGS. 18 to 21, the anticancer immune system was constructed throughout the organism also in the animal model, so that activated cytotoxic T cells were able to remove cancer cells in other locations to which drugs are not injected.

STING [4] = molecular target: T2, STING (Mus musculus, UniProt Q3TBT3); test: CETSA and ITDRF in Raw264.7 cells, STING; format: binding; parameters: endogenous in cells; host or cells: Raw264.7
T2 sequence (Q3TBT3 1-378): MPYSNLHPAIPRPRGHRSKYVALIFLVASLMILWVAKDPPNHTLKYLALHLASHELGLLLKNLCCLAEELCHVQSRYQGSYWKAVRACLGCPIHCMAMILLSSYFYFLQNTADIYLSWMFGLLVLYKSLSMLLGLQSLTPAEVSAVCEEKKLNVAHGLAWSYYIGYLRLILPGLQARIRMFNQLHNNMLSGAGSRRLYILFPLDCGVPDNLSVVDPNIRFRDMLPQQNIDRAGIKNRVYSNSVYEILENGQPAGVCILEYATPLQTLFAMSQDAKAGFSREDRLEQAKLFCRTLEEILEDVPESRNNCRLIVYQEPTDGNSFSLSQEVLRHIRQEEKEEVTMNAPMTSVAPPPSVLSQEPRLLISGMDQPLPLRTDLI
Excerpt: as §1, §2

[5] = combination with cGAMP compared with single administration of cGAMP

STING (Homo sapiens, UniProt Q86WV6), sequence (Q86WV6 whole entry H232R): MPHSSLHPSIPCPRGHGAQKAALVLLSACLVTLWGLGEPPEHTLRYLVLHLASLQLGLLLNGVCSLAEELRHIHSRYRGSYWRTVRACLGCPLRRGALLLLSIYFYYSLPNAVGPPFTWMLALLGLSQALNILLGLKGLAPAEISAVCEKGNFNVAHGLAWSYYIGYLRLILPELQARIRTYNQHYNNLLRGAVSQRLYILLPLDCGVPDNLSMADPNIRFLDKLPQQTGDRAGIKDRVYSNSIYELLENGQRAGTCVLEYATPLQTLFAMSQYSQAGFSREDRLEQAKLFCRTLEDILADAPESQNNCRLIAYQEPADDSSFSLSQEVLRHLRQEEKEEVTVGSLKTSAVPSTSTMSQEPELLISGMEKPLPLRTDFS

## COc1ccc(CC2=CN(c3ccc(C(=O)NC[C@H]4CCCO4)cc3[N+](=O)[O-])[C@H](C(C)C)C(=O)N2Cc2ccc(O)cc2)cc1 [Formula 1, 4-((R)-4-(4-hydroxybenzyl)-2-isopropyl-5-(4-methoxybenzyl)-3-oxo-3,4-dihydropyrazin-1 (2H)-yl)-3-nitro-N-(((R)-tetrahydrofuran-2-yl)methyl)benzamide]
STING [1]; FIG. 11
  CETSA thermal stability of STING: induced thermal destabilization by selective binding only to STING
STING [1]; FIG. 12
  ITDRF thermal stability of STING: reduced the thermal stability of STING at high concentrations in a concentration-dependent manner
[2]
  expression of IL-15 and IL-15Rα: increased
TRIM29
  ITDRF effect on TRIM29: without affecting TRIM29
[3]; [5]
  final tumor mass of primary tumor: reduced
  primary tumor growth: inhibited
[3]; secondary tumor not directly injected
  tumor death in secondary carcinomas: tumor death also effectively occurred
STING [4]; FIG. 13
  CETSA thermal stability of STING: induced thermal destabilization by selective binding only to STING
STING [4]; FIG. 14
  ITDRF thermal stability of STING: reduced the thermal stability of STING at high concentrations in a concentration-dependent manner
